The values that follow come from ChEMBL document CHEMBL2396652 (Bioorg Med Chem Lett, 2013).

The target of test [1] is T1, Mu-type opioid receptor (Homo sapiens, UniProt P35372). Briefly: Agonist activity at mu opioid receptor (unknown origin) expressed CHO cells assessed as stimulation of [35S]-GTP[gammaS] binding. Format: cell-based. A general note: GTPγS resists hydrolysis and so accumulates on activated G proteins.
For test [2], the species on record is Homo sapiens. The experiment in a line: Selectivity ratio of Ki for kappa opioid receptor (unknown origin) to Ki for mu opioid receptor (unknown origin).
The species named for test [3] is Homo sapiens. The experiment in a line: Selectivity ratio of Ki for delta opioid receptor (unknown origin) to Ki for mu opioid receptor (unknown origin).
Test [4] addresses T1, Mu-type opioid receptor. The experiment in a line: Agonist activity at mu opioid receptor (unknown origin) expressed CHO cells assessed as stimulation of [35S]-GTP[gammaS] binding relative to DAMGO. Format: cell-based.
In test [5] the target is T1, Mu-type opioid receptor. Briefly: Antagonist activity at mu opioid receptor (unknown origin) expressed CHO cells assessed as inhibition of [35S]-GTP[gammaS] binding. Format: cell-based.
In test [6] the target is T1, Mu-type opioid receptor. The experiment in a line: Agonist activity at mu opioid receptor (unknown origin) expressed CHO cells assessed as stimulation of [35S]-GTP[gammaS] binding at 10 uM relative to DAMGO. The test is classed as cell-based.

As a reminder, the EC50 is the concentration that produces a half-maximal response. As usually defined, the Emax is the size of the effect at its maximum, as opposed to the concentration needed.

Calls of active or inactive are those of the source. The rule behind the calls is not given here.

T1 sequence (P35372 whole entry): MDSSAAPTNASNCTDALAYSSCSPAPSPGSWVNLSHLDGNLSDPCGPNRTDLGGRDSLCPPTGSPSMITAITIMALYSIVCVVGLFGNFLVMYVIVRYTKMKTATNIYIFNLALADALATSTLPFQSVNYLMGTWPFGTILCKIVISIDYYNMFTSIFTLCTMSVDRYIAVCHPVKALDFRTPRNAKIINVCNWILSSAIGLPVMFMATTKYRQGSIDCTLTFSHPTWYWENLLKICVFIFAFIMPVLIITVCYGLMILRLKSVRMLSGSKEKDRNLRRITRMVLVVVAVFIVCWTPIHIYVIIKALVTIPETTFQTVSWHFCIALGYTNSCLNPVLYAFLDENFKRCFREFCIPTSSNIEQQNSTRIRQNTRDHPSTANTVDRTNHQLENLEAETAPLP

On to `O=C(N[C@@]12CCC(=O)[C@@H]3Oc4c(O)ccc5c4[C@@]31CCN(CC1CC1)[C@@H]2C5)c1ccc2ccccc2n1`, for which, at Mu-type opioid receptor [1], the EC50 amounted to 38.8 nM. Besides, the Ratio Ki worked out at 0.03 in the test filed under Homo sapiens [2] and 1.7 in the test filed under Homo sapiens [3]. Also, the Emax at Mu-type opioid receptor [4] worked out at 34.4%.
On to `O=C(N[C@@]12CCC(=O)[C@@H]3Oc4c(O)ccc5c4[C@@]31CCN(CC1CC1)[C@@H]2C5)c1ccccn1`, for which the Ratio Ki in the test listed under Homo sapiens [2] worked out at 0.24; in the test listed under Homo sapiens [3], 63. In addition, the inhibition result on Mu-type opioid receptor [5] is “Active”. On Mu-type opioid receptor [6], the Emax came to 0.9%.
Take `O=C(N[C@@]12CCC(=O)[C@@H]3Oc4c(O)ccc5c4[C@@]31CCN(CC1CC1)[C@@H]2C5)c1ccncc1`: on Mu-type opioid receptor [1], the EC50 amounted to 1.67 nM. Also, the Ratio Ki in the test listed under Homo sapiens [2] came to 0.4; in the test listed under Homo sapiens [3], 13. Besides, on Mu-type opioid receptor [4], the Emax is 7.74%.
Taken in the same sequence, the figures for `O=C(N[C@@]12CCC(=O)[C@@H]3Oc4c(O)ccc5c4[C@@]31CCN(CC1CC1)[C@@H]2C5)c1ccc2ccccc2c1` were 11.1 nM, 0.05, 1.7 and 16.5%.
The like results for `O=C(N[C@@]12CCC(=O)[C@@H]3Oc4c(O)ccc5c4[C@@]31CCN(CC1CC1)[C@@H]2C5)c1ccccc1` were, in that order, 7.2 nM, 0.03, 13 and 5.79%.
Taken in the same sequence, the figures for `O=C(N[C@@]12CCC(=O)[C@@H]3Oc4c(O)ccc5c4[C@@]31CCN(CC1CC1)[C@@H]2C5)c1cnc2ccccc2c1` were 2.81 nM, 0.12, 1.3 and 15.8%.
In the case of `O=C(N[C@@]12CCC(=O)[C@@H]3Oc4c(O)ccc5c4[C@@]31CCN(CC1CC1)[C@@H]2C5)c1cc2ccccc2cn1`, the figures for the Ratio Ki in the test listed under Homo sapiens [2] and in the test listed under Homo sapiens [3] were 0.07 and 7.2, respectively. Also, at Mu-type opioid receptor [5], the inhibition entry is “Active”. The Emax at Mu-type opioid receptor [6] turned out to be 2.84%.
Turning to `COc1cccc2c1[C@]13CCN(CC4CC4)[C@H](C2)[C@]1(OC)CCC(=O)C3`, the Ratio Ki in the test filed under Homo sapiens [2] came to 45; in the test listed under Homo sapiens [3] it was 40.
Consider `O=C(N[C@@]12CCC(=O)[C@@H]3Oc4c(O)ccc5c4[C@@]31CCN(CC1CC1)[C@@H]2C5)c1cccnc1`, for which the values for the Ratio Ki in the test filed under Homo sapiens [2] and in the test listed under Homo sapiens [3] were 0.21 and 53, respectively. Besides, on Mu-type opioid receptor [5], the inhibition entry was “Active”. The Emax at Mu-type opioid receptor [6] was found to be 5.09%.
